From patent publication US12030888B2, “Himastatin derivatives, and processes of preparation thereof, and uses thereof” (priority 2021, dated 2024)
In brackets after ≈: the same amount, converted by molar mass. Read-outs that look alike come from different tables or passages of the source.

Tests used:
[1] = early investigation (ref. vii); cited from earlier work
B. subtilis (ATCC 6633) = test: Microscopy of membrane morphology at sub-lethal concentration, FM 4-64 stain; type: cell-based, Bacillus subtilis; details: sub-lethal concentration 0.25 μg/mL, 3 h at 37 °C
Description: B. subtilis (ATCC 6633) was used for all microscopy experiments. For time-course studies at lethal concentration, culture containing 1 μg/mL FM 4-64 was combined with medium containing himastatin before being immediately added to a 1% agarose pad containing 0.5 μg/mL sytox green (Invitrogen). One section of the agarose pad was then imaged every 5 minutes to monitor cell death. For studies of morphological changes in sub-lethal concentrations, culture was incubated with 0.25 μg/mL (−) or (+)-himastatin for 3 h at 37 C, before being combined with FM 4-64 and added to an agarose pad containing sytox green. Images were collected on a Zeiss AxioPlan2 upright microscope using phase-contrast and equipped with a Hamamatsu Orca-ER cooled CCD camera using standard filter sets for GFP (to visualize SYTOX green; excitation 470/40 nm and emission 525/50 nm), TxRED (to visualize FM 4-64; excitation 565/40 and emission 620/60 nm), and DIC (for phase-contrast). Additional imaged were collected with an RPI Spinning Disk Confocal microscope equipped with a Hamamatsu Orca-ER cooled CCD camera using standard filter sets for GFP (488 nm laser, emission 525/50 nm), RFP (561 nm laser, emission 605/70 nm), and brightfield.
B. subtilis (ATCC 6633) in Mueller Hinton broth (NMB) was used for all microscopy experiments. For time-course studies with natural himastatin at lethal concentration, a bacterial culture matching the optical density of McFarland standard 0.5 (1×10^8 cfu/mL) was supplemented with 1 μg/mL FM 4-64 before being combined with medium containing (−)- or (+)-himastatin (1) (2 μg/mL) immediately before imaging on a 1% agarose pad containing 0.5 μg/mL SYTOX Green (Invitrogen). One section of the agarose pad was then imaged every 5 min to monitor cell death. For studies of morphological changes in bacteria treated with sub-lethal concentrations, culture was incubated with 0.25 μg/mL (−)- or (+)-himastatin (1) for 3 h at 37° C., before being supplemented with 1 μg/mL FM 4-64 and added immediately to an agarose pad. […]

[2] = tested on: Bacillus subtilis (ATCC 6633); type: cell-based
Description: (§1) Bacillus subtilis subsp. spizizenii (ATCC 6633) and Streptomyces himastatinicus (ATCC 53653) were obtained from the American Type Culture Collection (ATCC). Methicillin-resistant and methicillin-susceptible Staphylococcus aureus (Newman), and vancomycin-resistant (V583) and vancomycin-susceptible (T7) Enterococcus faecalis were obtained from the lab of Dr. Roby P. Bhattacharyya (Massachusetts General Hospital).^6 B. subtilis was grown in brain-heart infusion (BHI) medium at 37° C., S. himastatinicus was grown in tryptone-yeast extract broth (ISP medium 2) at 28° C., E. faecalis was grown in Todd-Hewitt broth, and all other organisms were grown in lysogeny broth (LB) medium at 37° C.
(§2) Minimum inhibitory concentration (MIC) was determined using the broth microdilution method. 20-fold stocks of compound in DMSO were diluted 10-fold in MHB medium and 100 μL of each were added to the first well of a 96-well plate. 50 μL of the first well was then serially diluted through 50 μL MHB medium in wells 2-11. To prepare the bacterial culture, an overnight culture was diluted in MHB until the turbidity matched that of McFarland standard 0.5. Then, the culture was diluted 1:100 and added to wells 1-11, resulting in 2-fold dilutions of antibiotic beginning at 64 μg/mL and a final inoculum of 5×10^5 cfu/mL. 100 μL of MHB medium was added to well 12 as a sterility control, and a row containing no antibiotic was used as a growth control. The plate was incubated at the organism's respective growth temperature overnight (B. subtilis) or 72 h (S. himastatinicus) and the MIC was determined using OD600.
(§3) Minimum inhibitory concentration (MIC) was determined using the broth microdilution method.^7 20-fold (1.28 mg/mL) stocks of compound in dimethylsulfoxide, stored as frozen (−80° C.) 30-μL aliquots, were diluted 10-fold in Mueller Hinton broth (MHB) and a 100-μL sample of each was added to the first well of a 96-well plate. A 50-μL sample of the first well was then serially diluted two-fold through 50-μL NMB medium in wells 2-11. A bacterial culture was prepared from a frozen (−80° C.) stock in the organism's respective growth medium and grown overnight. The culture was then diluted in MHB until the turbidity matched that of McFarland standard 0.5 by measuring the optical density at 600 nm (1×10^8 cfu/mL). Then, the culture was diluted 1:100 and a 50-μL aliquot was added to wells 1-11, resulting in 2-fold dilutions of antibiotic from 64 μg/mL down to 0.0625 μg/mL and a final inoculum of 5×10^5 cfu/mL. A 100-μL aliquot of MHB medium was added to well 12 as a sterility control, and a row containing no antibiotic was used as a growth control. The plate was incubated at the organism's respective growth temperature overnight or 72 h (S. himastatinicus). The MIC was determined by observing the well density by eye and, with the exception of S. himastatinicus which grows in solid colonies in media, was confirmed by measuring the optical density of each well at 600 nm. At least two assays were conducted for each organism on identical lots of compound. No degradation of compound stocks in dimethylsulfoxide was observed by LC-MS analysis after being subjected to multiple freeze-thaw cycles.

Gram-positive bacteria = type: cell-based; details: for antibiotic activity (in words): relative to (−)-himastatin (1) where a derivative
Description: as §1, §2, §3

[3] = tested on: Vancomycin-Sensitive E. faecalis (T7); type: cell-based, Enterococcus faecalis
Description: as §1, §2, §3

[4] = tested on: Methicillin-Sensitive S. aureus (Newman); type: cell-based, Staphylococcus aureus
Description: as §1, §2, §3

[5] = tested on: Vancomycin-Resistant Enterococcus faecalis (V583); type: cell-based
Description: as §1, §2, §3

[6] = tested on: Streptomyces himastatinicus (ATCC 53653); type: cell-based
Description: as §1, §2, §3

[7] = tested on: Methicillin-Resistant Staphylococcus aureus; type: cell-based
Description: as §1, §2, §3

For `CC(C)C[C@@H]1NC(=O)[C@H]2C[C@@H](O)CNN2C(=O)[C@H](C(C)C)OC(=O)[C@@H](C(C)C)NC(=O)[C@@H]2C[C@@]3(O)c4cc(-c5ccc6c(c5)[C@]5(O)C[C@H]7C(=O)N[C@H](C(C)C)C(=O)O[C@@H](C(C)C)C(=O)N8NC[C@H](O)C[C@@H]8C(=O)N[C@@H](CC(C)C)C(=O)N[C@H]([C@H](C)O)C(=O)N7[C@@H]5N6)ccc4N[C@H]3N2C(=O)[C@@H]([C@H](C)O)NC1=O` [(−)-1, (−)-Himastatin, reference compound], the “antibiotic activity in the presence of sodium salts of phospholipids and fatty acids” value [1] is given as “reduced”, the “membrane morphology (FM 4-64)” value (B. subtilis (ATCC 6633)) is given as “visual membrane defects” and the “MIC in Bacillus subtilis” value ([2]; text and figure legend) is given as 1 µg/mL (≈ 0.673 µM). The MIC values (Gram-positive bacteria) was 1 to 2 µg/mL and the “antibiotic activity (in words)” value (Gram-positive bacteria) was “potent antibiotic activity”.

In the case of `CC(C)[C@@H]1OC(=O)[C@@H](C(C)C)NC(=O)[C@@H]2C[C@@]3(O)c4cc(-c5ccc6c(c5)[C@]5(O)C[C@H]7C(=O)N[C@H](C(C)C)C(=O)O[C@@H](C(C)C)C(=O)N8NC[C@H](O)C[C@@H]8C(=O)N[C@@H](CCCCN=[N+]=[N-])C(=O)N[C@H]([C@H](C)O)C(=O)N7[C@@H]5N6)ccc4N[C@H]3N2C(=O)[C@@H]([C@H](C)O)NC(=O)[C@H](CCCCN=[N+]=[N-])NC(=O)[C@H]2C[C@@H](O)CNN2C1=O` [(−)-32, Himastatin ε-Azidolysine Derivative], the “MIC (μg/mL) VSE faecalis” value ([3]; Vancomycin-Sensitive (T7)) is reported as 0.5 µg/mL (≈ 0.319 µM), the “MIC (μg/mL) MSSA” value ([4]; Newman) is reported as 1 µg/mL (≈ 0.638 µM) and the “MIC (μg/mL) B. subtilis” value ([2]; ATCC 6633) is reported as 2 µg/mL (≈ 1.28 µM). The “MIC (μg/mL) VRE faecalis” value ([5]; Vancomycin-Resistant (V583)) was 1 µg/mL (≈ 0.638 µM), the “MIC (μg/mL) S. himastatinicus” value ([6]; ATCC 53653, 72 h) was 8 µg/mL (≈ 5.1 µM) and the “MIC (μg/mL) MRSA” value ([7]; Methicillin-Resistant) was 2 µg/mL (≈ 1.28 µM). For the same molecule, the “antibiotic activity (in words)” value (Gram-positive bacteria) was “essentially no impact on the antibiotic activity”.

With `CC(C)C[C@H]1NC(=O)[C@@H]2C[C@H](O)CNN2C(=O)[C@@H](C(C)C)OC(=O)[C@H](C(C)C)NC(=O)[C@H]2C[C@]3(O)c4cc(-c5ccc6c(c5)[C@@]5(O)C[C@@H]7C(=O)N[C@@H](C(C)C)C(=O)O[C@H](C(C)C)C(=O)N8NC[C@@H](O)C[C@H]8C(=O)N[C@H](CC(C)C)C(=O)N[C@@H]([C@@H](C)O)C(=O)N7[C@H]5N6)ccc4N[C@@H]3N2C(=O)[C@H]([C@@H](C)O)NC1=O` [(+)-1, Ent-Himastatin] the “MIC (μg/mL) VSE faecalis” value ([3]; broth microdilution, Vancomycin-Sensitive E. faecalis (T7), n ≥ 2) was 1 µg/mL (≈ 0.673 µM), the “MIC (μg/mL) MSSA” value ([4]; broth microdilution, Methicillin-Sensitive S. aureus (Newman), n ≥ 2) was 2 µg/mL (≈ 1.35 µM) and the “membrane morphology (FM 4-64)” value (B. subtilis (ATCC 6633); listed as (+)-ent-himastatin) was “identical”. The “membrane morphology (FM 4-64)” value (B. subtilis (ATCC 6633); listed as ent-(+)-himastatin) was “visual membrane defects”, the “MIC (μg/mL) B. subtilis” value ([2]; broth microdilution, Bacillus subtilis (ATCC 6633), growth inhibition determined by eye, n ≥ 2) was 0.5 µg/mL (≈ 0.337 µM) and the “MIC (μg/mL) VRE faecalis” value ([5]; broth microdilution, Vancomycin-Resistant Enterococcus faecalis (V583), n ≥ 2) was 2 µg/mL (≈ 1.35 µM). The “activity against the producing organism Streptomyces himastatinicus (in words)” value [6] was “completely evade its own resistance mechanism and inhibit its growth”, the “MIC (μg/mL) S. himastatinicus” value ([6]; broth microdilution, Streptomyces himastatinicus (ATCC 53653), 72 h, n ≥ 2) was 0.5 µg/mL (≈ 0.337 µM) and the “fold more active in inhibiting the growth of Streptomyces himastatinicus compared to (−)-himastatin (1)” value ([6]; relative to (−)-himastatin (1)) was 4-8 fold. For the same molecule, the “MIC (μg/mL) MRSA” value ([7]; broth microdilution, Methicillin-Resistant Staphylococcus aureus, n ≥ 2) was 4 µg/mL (≈ 2.69 µM).
